From patent US12635686B2, “Compositions and methods for imposing seed quality” (priority 2014, dated 2026)

Experiments:
Assay type in all cases: in vivo
Inbred Seed Corn [1] = assay: Seed size and shape evaluation of seed from treated field plots (estimated units, bag weight, proportions); conditions: for % RDS: rounds as share of all units; for ABOVE 25: seed above size 25; for BELOW 17: seed below size 17; for EST. UNITS, total: sum of the four size/shape categories
Method: In an actively growing seed corn field scheduled to be treated with Drexel Defol® 750, four test plots were evaluated. Two plots were treated with Drexel Defol® 5, a sodium chlorate formulation containing 5 pounds of active sodium chlorate per gallon, and with varying amounts of cyanate anions. Sodium cyanate salt was used as the source of cyanate for its compatibility with sodium chlorate. The results of these two treatments were compared to an untreated check and a plot treated with Defol® 750, which contained 7.5 pounds of active sodium chlorate per gallon. The amount of active sodium chlorate applied in the three treated plots was equivalent.
• Crop: Inbred Seed Corn • Variety: A0036RMQKZ×HCL4011 • Plot Sizes: 5 acres for Plots 1-3; 7 acres for Plot 4 • Plot Location: Near Oxford, WI • Season/Year: Summer/2013 • Corn Stage: Full Dent • Application Equipment: Case Patriot Sprayer • Application Conditions: Temperature: 86° F. • Sky: Sunny • Wind: 4 mph • Application Diluent: Water • Application Volume: 20 gallons per acre • Number of full days between application and harvest: 24 days • Post Harvest Seed • Treatment: CruiserMaxx® Corn 250 Test Plot Treatments: • Plot 1—Untreated Check • Plot Size: 5 acres • Plot 2—Treatment A • Defol® 5: 4.8 quarts per acre • Sodium cyanate: 6.4 grams per acre • Water: 75.2 quarts per acre • Plot Size: 5 acres • Plot 3—Treatment B • Defol® 5: 4.8 quarts per acre • Sodium cyanate: 15.9 grams per acre • Water: 75.2 quarts per acre • Plot size: 5 acres • Plot 4—Defol® 750 Treatment Check • Defol® 750: 3.2 quarts per acre • Water: 76.8 quarts per acre • Plot size: 7 acres
Samples of corn seed from each of the four test plots were evaluated for seed size, shape, as well as germination under certain test conditions: warm germination, cold germination and saturated cold germination. Each of the four evaluated categories (i.e., 26/21 Round, 21/17 Round, 26/21 Flat, 21/17 Flat) constituted desirable and saleable seed size and shape. Evaluation was performed at Biodiagnostics, Inc., River Falls, WI. The results were as follows:
• Crop: Inbred Seed Corn • Variety: D2507VT3P • Plot Location: Jackson, WI • Season/Year: Summer/2014 • Corn Stage at Application: to Full Dent • Moisture at Application: 42% • Application Equipment: Case Patriot Sprayer • Application Conditions: Temperature: 88-90° F. • Sky: Clear • Wind: 2-3 mph • Application Diluent: Water • Application Volume: 20 gallons per acre • Number of full days between application and harvest: 8 days • Post Harvest Seed Treatment: CruiserMaxx® Corn 250 Test Plot Treatments: • Plot 1—Untreated Check • Plot Size: Balance of Field • Plot 2—Treatment A • Defol® 5: 4.8 quarts per acre • Sodium cyanate: 6.4 grams per acre • Water: 75.2 quarts per acre • Plot Size: 16 acres • Plot 3—Defol® 750 Treatment Check • Defol® 750: 3.2 quarts per acre • Water: 76.8 quarts per acre • Plot Size: 16 acres
Samples of corn seed from each of the three test plots were evaluated for desirable/saleable seed size and shape, as well as germination under certain test conditions: warm germination, cold germination and saturated cold germination. Each of the four evaluated categories (i.e., 24/21 Round, 21/17 Round, 24/21 Flat, 21/17 Flat) constituted desirable and saleable seed size and shape. The results were as follows: […]

Inbred Seed Corn [2] = assay: Warm germination test of harvested seed; conditions: for WARM GERM, sum: sum of the four size/shape categories
Source text: (§1) Seed quality can be evaluated by germination tests, such as warm germination, cold germination, and saturated cold germination. These types of tests are commonly used to predict seed germination and emergence. Among these tests, the saturated cold germination test exposes the seeds to cold, wet, and oxygen deficient stress, and is thus considered probative of seed germination viability over a range of field conditions. […]
(§2) • Crop: Inbred Seed Corn • Variety: D2905VT3P • Plot Location: New Haven, WI • Season/Year: Summer/2014 • Corn Stage at Application: to Full Dent • Moisture at Application: 44% • Application Equipment: Case Patriot Sprayer • Application Conditions: Temperature: 88-90° F. • Sky: Clear • Wind: 2-3 mph • Application Diluent: Water • Application Volume: 20 gallons per acre • Number of full days between application and harvest: 10 days • Post Harvest Seed Treatment: CruiserMaxx® Corn 250 Test Plot Treatments: • Plot 1—Untreated Check • Plot Size: Balance of Field • Plot 2—Treatment A • Defol® 5: 4.8 quarts per acre • Sodium cyanate: 6.4 grams per acre • Water: 75.2 quarts per acre • Plot Size: 16 acres • Plot 3—Defol® 750 Treatment Check • Defol® 750: 3.2 quarts per acre • Water: 76.8 quarts per acre • Plot Size: 16 acres • Plot 4—Treatment B • Sodium cyanate: 6.4 grams per acre • Water: 80 quarts per acre • Plot Size: 16 acres
(§3) Samples of corn seed from each of the three test plots were evaluated for desirable/saleable seed size and shape, as well as germination under certain test conditions: warm germination, cold germination and saturated cold germination. Each of the four evaluated categories (i.e., 24/21 Round, 21/16 Round, 24/21 Flat, 21/16 Flat) constituted desirable and saleable seed size and shape. The results were as follows:
as §2, with “D3910VT2P” for “D2905VT3P”, “Springville,” for “New Haven,”, “Very early start of dent” for “to Full Dent”, “50-55%” for “44%”, “17” for “10”
as §3, with “25/20” for “24/21”, “20/16” for “21/16”, “shape.” for “shape. The results were as follows:”

Inbred Seed Corn [3] = assay: Cold germination test of harvested seed; conditions: for COLD GERM, sum: sum of the four size/shape categories
Source text: as §1, §2, §3
as §2, with “D3910VT2P” for “D2905VT3P”, “Springville,” for “New Haven,”, “Very early start of dent” for “to Full Dent”, “50-55%” for “44%”, “17” for “10”
as §3, with “25/20” for “24/21”, “20/16” for “21/16”, “shape.” for “shape. The results were as follows:”

Inbred Seed Corn [4] = assay: Saturated cold (super cold) germination test of harvested seed; conditions: for SUPER COLD, sum: sum of the four size/shape categories
Source text: Seed quality can be evaluated by germination tests, such as warm germination, cold germination, and saturated cold germination. These types of tests are commonly used to predict seed germination and emergence. Among these tests, the saturated cold germination test exposes the seeds to cold, wet, and oxygen deficient stress, and is thus considered probative of seed germination viability over a range of field conditions.
The term “seed vigor” refers to a measure of the quality of a seed assemblage based on certain properties, such as percent germination, which can predict seed germination and emergence under a wide range of field conditions, particularly stress conditions. The methodology of the present disclosure can be followed to produce a seed assemblage that is characterized by enhanced seed vigor, as determined by seed vigor testing. […] One such technique is known as the saturated cold germination test. According to the Seed Vigor Testing Handbook by the Association of Official Seed Analysts (2009), the saturated cold germination test is the most stressful of various cold-test procedures for determining the vigor of a seed assemblage. In this test, the soil or planting medium is maintained at 100% water holding capacity for the duration of the test, which also subjects seeds to sub-optimal temperatures and soil-borne pathogens. These conditions evaluate seeds based on their response to three stress factors: imbibitional chilling injury, attack by soil-borne pathogens, and limited oxygen availability. These harsh conditions can allow testers to discriminate between seed assemblages differing in vigor, and thus the saturated cold germination test can act as a good indicator of seed quality for many crops. […]
as §2
as §3, with “follows: […]” for “follows:”

[5] = Example 2 Hybrid 2 (D2905VT3P, 2014), seed size 21/16F
[6] = Example 2 Hybrid 2 (D2905VT3P, 2014), seed size 21/16R
[7] = Example 2 Hybrid 2 (D2905VT3P, 2014), seed size 24/21F
[8] = Example 2 Hybrid 2 (D2905VT3P, 2014), seed size 24/21R
[9] = Example 2 Hybrid 2, column headed GRAMS in the 8th table
[10] = Example 2 Hybrid 3 (D3910VT2P, 2014), seed size 20/16F
[11] = Example 2 Hybrid 3 (D3910VT2P, 2014), seed size 20/16R
[12] = Example 2 Hybrid 3 (D3910VT2P, 2014), seed size 25/20F
[13] = Example 2 Hybrid 3 (D3910VT2P, 2014), seed size 25/20R
[14] = Example 2 Hybrid 3, column headed GRAMS in the 12th table

Compound: N#CO [Cyanate, Sodium cyanate]
- EST. BAG WT. (Inbred Seed Corn [1]; [5]): 40.5 lbs
- EST. UNITS (Inbred Seed Corn [1]; [5]): 198
- EST. BAG WT. (Inbred Seed Corn [1]; [6]): 45.7 lbs
- EST. UNITS (Inbred Seed Corn [1]; [6]): 392
- EST. BAG WT. (Inbred Seed Corn [1]; [7]): 51.6 lbs
- EST. UNITS (Inbred Seed Corn [1]; [7]): 180
- EST. BAG WT. (Inbred Seed Corn [1]; [8]): 60.5 lbs
- EST. UNITS (Inbred Seed Corn [1]; [8]): 253
- % SF OF ALL FL (Inbred Seed Corn [1]; Example 2 Hybrid 2, 21/16F units as share of 24/21F and 21/16F): 52.38%
- % SR OF ALL RDS (Inbred Seed Corn [1]; Example 2 Hybrid 2, 21/16R units as share of 24/21R and 21/16R): 60.78%
- % RDS (Inbred Seed Corn [1]; Example 2 Hybrid 2): 63.05%
- ABOVE 25 (Inbred Seed Corn [1]; [9]): 5
- BELOW 17 (Inbred Seed Corn [1]; [9]): 21
- EST. UNITS, total (Inbred Seed Corn [1]; Example 2 Hybrid 2): 1023
- yields and proportions of seed at desirable and saleable sizes and shapes (Inbred Seed Corn [1]; Example 2 Hybrid 2 and Hybrid 3, compared to the Untreated Checks): higher yields and proportions
- EST. BAG WT. (Inbred Seed Corn [1]; [10]): 40.1 lbs
- EST. UNITS (Inbred Seed Corn [1]; [10]): 232
- EST. BAG WT. (Inbred Seed Corn [1]; [11]): 42.7 lbs
- EST. UNITS (Inbred Seed Corn [1]; [11]): 218
- EST. BAG WT. (Inbred Seed Corn [1]; [12]): 50.6 lbs
- EST. UNITS (Inbred Seed Corn [1]; [12]): 361
- EST. BAG WT. (Inbred Seed Corn [1]; [13]): 57 lbs
- EST. UNITS (Inbred Seed Corn [1]; [13]): 234
- % SF OF ALL FL (Inbred Seed Corn [1]; Example 2 Hybrid 3, 20/16F units as share of 25/20F and 20/16F): 39.12%
- % SR OF ALL RDS (Inbred Seed Corn [1]; Example 2 Hybrid 3, 20/16R units as share of 25/20R and 20/16R): 48.23%
- % RDS (Inbred Seed Corn [1]; Example 2 Hybrid 3): 43.25%
- ABOVE 25 (Inbred Seed Corn [1]; [14]): 4
- BELOW 17 (Inbred Seed Corn [1]; [14]): 23
- EST. UNITS, total (Inbred Seed Corn [1]; Example 2 Hybrid 3): 1045
- bag weight, in words (Inbred Seed Corn [1]; Examples 1 and 2, compared to the Untreated Check): more desirable bag weights
- WARM GERM (Inbred Seed Corn [2]; [5]): 96%
- WARM GERM (Inbred Seed Corn [2]; [6]): 96%
- WARM GERM (Inbred Seed Corn [2]; [7]): 99%
- WARM GERM (Inbred Seed Corn [2]; [8]): 98%
- WARM GERM, sum (Inbred Seed Corn [2]; Example 2 Hybrid 2): 389%
- WARM GERM (Inbred Seed Corn [2]; [10]): 98%
- WARM GERM (Inbred Seed Corn [2]; [11]): 96%
- WARM GERM (Inbred Seed Corn [2]; [12]): 99%
- WARM GERM (Inbred Seed Corn [2]; [13]): 99%
- WARM GERM, sum (Inbred Seed Corn [2]; Example 2 Hybrid 3): 392%
- COLD GERM (Inbred Seed Corn [3]; [5]): 98%
- COLD GERM (Inbred Seed Corn [3]; [6]): 96%
- COLD GERM (Inbred Seed Corn [3]; [7]): 99%
- COLD GERM (Inbred Seed Corn [3]; [8]): 96%
- COLD GERM, sum (Inbred Seed Corn [3]; Example 2 Hybrid 2): 389%
- COLD GERM (Inbred Seed Corn [3]; [10]): 95%
- COLD GERM (Inbred Seed Corn [3]; [11]): 95%
- COLD GERM (Inbred Seed Corn [3]; [12]): 96%
- COLD GERM (Inbred Seed Corn [3]; [13]): 97%
- COLD GERM, sum (Inbred Seed Corn [3]; Example 2 Hybrid 3): 383%
- seed vigor based on the super cold germination percentage (Inbred Seed Corn [4]; Example 2, over the Untreated Checks, particularly Hybrid 3): increased seed vigor
- SUPER COLD (Inbred Seed Corn [4]; [5]): 95%
- SUPER COLD (Inbred Seed Corn [4]; [6]): 92%
- SUPER COLD (Inbred Seed Corn [4]; [7]): 97%
- SUPER COLD (Inbred Seed Corn [4]; [8]): 99%
- SUPER COLD, sum (Inbred Seed Corn [4]; Example 2 Hybrid 2): 383%
- SUPER COLD (Inbred Seed Corn [4]; [10]): 90%
- SUPER COLD (Inbred Seed Corn [4]; [11]): 92%
- SUPER COLD (Inbred Seed Corn [4]; [12]): 95%
- SUPER COLD (Inbred Seed Corn [4]; [13]): 95%
- SUPER COLD, sum (Inbred Seed Corn [4]; Example 2 Hybrid 3): 372%
